In paper PMC3867265 (Science signaling, 2013):
Positions count from the first letter of the chain named. Numbers in names are those of the source. Entries after “also recorded” stand apart in the source; their conditions may differ. Each block holds one molecule with its values, some of them ahead of it.

T1: MT2 (Mus musculus, UniProt Q8CIQ6)
T1 sequence (Q8CIQ6 1-364): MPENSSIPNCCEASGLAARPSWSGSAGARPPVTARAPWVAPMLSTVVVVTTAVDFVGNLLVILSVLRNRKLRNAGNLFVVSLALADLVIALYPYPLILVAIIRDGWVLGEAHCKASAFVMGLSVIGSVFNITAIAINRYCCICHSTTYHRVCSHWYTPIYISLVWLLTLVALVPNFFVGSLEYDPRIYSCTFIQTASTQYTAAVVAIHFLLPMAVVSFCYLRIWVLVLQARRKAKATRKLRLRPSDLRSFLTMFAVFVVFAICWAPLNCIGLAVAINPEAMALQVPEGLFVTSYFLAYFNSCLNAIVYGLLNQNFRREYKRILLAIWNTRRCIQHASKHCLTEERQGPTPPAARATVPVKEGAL

T2: mouse MT2 receptor (Mus musculus, UniProt Q8CIQ6)
T2 sequence (Q8CIQ6 1-364): T1 sequence (Q8CIQ6 1-364)

B1: mouse melatonin receptor type 1 (MT1), Rluc8 and YFP fusion proteins (receptor, UniProt Q61184 1-353, looked up)
chain: MKGNVSELLNATQQAPGGGEGGRPRPSWLASTLAFILIFTIVVDILGNLLVILSVYRNKKLRNSGNIFVVSLAVADLVVAVYPYPLVLTSILNNGWNLGYLHCQVSAFLMGLSVIGSIFNITGIAMNRYCYICHSLKYDKIYSNKNSLCYVFLIWMLTLIAIMPNLQTGTLQYDPRIYSCTFTQSVSSAYTIAVVVFHFIVPMIIVIFCYLRIWVLVLQVRRRVKPDNKPKLKPQDFRNFVTMFVVFVLFAICWAPLNLIGLIVASDPATMVPRIPEWLFVASYYLAYFNSCLNAIIYGLLNQNFRKEYKKIIVSLCTAKMFFVESSNEEADKIKCKPSPLIPNNNLIKVDSV
B2: mouse MT2-P95L mutant, Rluc8 and YFP fusion proteins (receptor, UniProt Q8CIQ6 1-364, looked up)
chain: T1 sequence (Q8CIQ6 1-364) with P95L
B3: mouse melatonin receptor type 2 (MT2), Rluc8 and YFP fusion proteins (receptor, UniProt Q8CIQ6 1-364, looked up)
chain: T1 sequence (Q8CIQ6 1-364)

How the values were obtained:
mouse photoreceptors = assay: Photoreceptor response; type: in vivo; conditions: for effect on the melatonin-induced photoreceptor response (a-wave at 7 ms): intravitreal injection of the agent plus melatonin; for mimicking of the photoreceptor response to melatonin (a-wave at 7 ms): intravitreal injection of the agent
C3H-f+/+ mice [1] = assay: Scotopic; type: in vivo, mouse; conditions: for effect on the melatonin-induced increase in the amplitude of the a- and b-wave: intravitreal antagonist, then melatonin i.p. 1 mg/kg; for amplitude of the a- and b-wave, compound alone: intravitreal injection alone, no melatonin
MT1 [2] = target: T3, MT1 (Mus musculus, UniProt Q61184); assay: cell-based
MT1/MT2 heteromers [3] = target: T4, MT1/MT2 heteromers (Mus musculus, UniProt Q61184+Q8CIQ6); assay: cell-based
MT2-/- mice = assay: Scotopic; type: in vivo, mouse; conditions: i.p. 1 mg/kg at ZT6, 1 h dark adaptation
MT1 [4] = target: T3, MT1; conditions: HEK293T cells expressing MT1 alone
MT1/MT2 heteromers [5] = target: T4, MT1/MT2 heteromers
C3H-f+/+ mice [6] = conditions: exogenous administration during the day, wild-type mice; cited from earlier work
[7] = target: wild-type MT1 receptor with the inactive MT2-P95L mutant (Mus musculus, UniProt Q61184); conditions: cells coexpressing wild-type MT1 with inactive MT2-P95L mutant
MT2 = target: T1, MT2; assay: Inositol phosphate production, HEK293T cells expressing MT2 alone; type: cell-based
MT1 and MT2 receptors = MT1 and MT2 receptors (Mus musculus, UniProt Q61184+Q8CIQ6)
MT1 [8] = target: T3, MT1; conditions: HEK293T cells expressing MT1 alone, compared with MT1/MT2 heteromers
mouse MT1 receptor = mouse MT1 receptor (Mus musculus, UniProt Q61184); assay: Competition of 2-[125I]iodo-melatonin binding at mouse MT1; conditions: mouse MT1, membranes of HEK293 cells
mouse MT2 receptor = target: T2, mouse MT2 receptor; assay: Competition of 2-[125I]iodo-melatonin binding at mouse MT2; conditions: mouse MT2, membranes of HEK293 cells
FRET or BRET = target: the molecule itself; assay: FRET or BRET
[9] = target: B3; assay: FRET or BRET
[10] = target: B1; assay: FRET or BRET

wild-type MT1 receptor with the inactive MT2-P95L mutant, sequence (Q8CIQ6 whole entry P95L partner, one chain of several): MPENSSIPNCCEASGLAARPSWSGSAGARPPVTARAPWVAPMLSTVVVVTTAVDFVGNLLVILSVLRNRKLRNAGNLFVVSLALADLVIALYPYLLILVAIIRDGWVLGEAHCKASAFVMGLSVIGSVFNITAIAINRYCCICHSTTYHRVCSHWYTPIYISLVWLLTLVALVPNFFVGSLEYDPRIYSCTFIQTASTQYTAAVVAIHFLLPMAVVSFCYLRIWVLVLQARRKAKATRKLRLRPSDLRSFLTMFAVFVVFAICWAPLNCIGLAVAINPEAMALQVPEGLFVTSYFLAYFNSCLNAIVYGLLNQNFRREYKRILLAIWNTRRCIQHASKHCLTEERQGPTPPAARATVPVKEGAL

Molecule: Nc1ncnc2c1nc(Br)n2[C@@H]1O[C@@H]2COP(=O)(O)O[C@H]2[C@H]1O [8-br-cAMP, 8-bromoadenosine 3′,5′-cyclic monophosphate]
effect on the melatonin-induced photoreceptor response (a-wave at 7 ms) (mouse photoreceptors): had no effect

Molecule: Cl.NC(CSSCC(N)C(=O)N1CCn2cc(-c3ccccc3)nc2C1CC1CCCCC1)C(=O)N1CCn2cc(-c3ccccc3)nc2C1CC1CCCCC1 (stereo not drawn) [BIM 46187, 7-[2-amino-1-oxo-3-thio-propyl]-8-cyclohexylmethyl-2-phenyl-5,6,7,8-tetrahydro-i midazo-[1,2a]-pyrazine dimer, hydrochloride]
effect on the melatonin-induced photoreceptor response (a-wave at 7 ms) (mouse photoreceptors): inhibited

Molecule: CCCCCCCCCCCCCC(=O)O[C@@H]1[C@@H](C)[C@@]2(O)[C@@H](C=C(CO)C[C@]3(O)C(=O)C(C)=C[C@@H]23)[C@@H]2C(C)(C)[C@]12OC(C)=O [PMA, Phorbol 12-myristate 13-acetate]
mimicking of the photoreceptor response to melatonin (a-wave at 7 ms) (mouse photoreceptors): mimicked
effect on the melatonin-induced photoreceptor response (a-wave at 7 ms) (mouse photoreceptors): significantly reduced

effect on the melatonin-induced increase in the amplitude of the a- and b-wave (C3H-f+/+ mice [1]): prevented the increase
amplitude of the a- and b-wave, compound alone (C3H-f+/+ mice [1]): did not produce any significant changes
IC50 (MT1 [2]): 5.8 ± 7.7 nM
IC50 (MT1/MT2 heteromers [3]): 4 ± 3.5 nM
Molecule: CCC(=O)N[C@@H]1Cc2ccccc2[C@H](c2ccccc2)C1 (relative stereo) [4P-PDOT, cis-4-Phenyl-2-propionamidotetralin]

effect on the melatonin-induced increase in the amplitude of the a- and b-wave (C3H-f+/+ mice [1]): prevented the increase
amplitude of the a- and b-wave, compound alone (C3H-f+/+ mice [1]): did not produce any significant changes
Molecule: CC(=O)NCCc1c(Cc2ccccc2)[nH]c2ccccc12 [luzindole]

Molecule: Cl.Cl.O=S(=O)(NCCNC/C=C/c1ccc(Br)cc1)c1cccc2cnccc12 [H89, H-89 dihydrochloride hydrate]
mimicking of the photoreceptor response to melatonin (a-wave at 7 ms) (mouse photoreceptors): did not mimic
effect on the melatonin-induced photoreceptor response (a-wave at 7 ms) (mouse photoreceptors): did not affect

block of the effect of exogenous melatonin on photoreceptors (mouse photoreceptors; intravitreal PKC inhibitor plus melatonin): about 40%
Molecule: CN1CCCC1CCn1cc(C2=C(c3c[nH]c4ccccc34)C(=O)NC2=O)c2ccccc21 (stereo not drawn) [Bisl, Bisindolylmaleimide II]

Molecule: COc1ccc2[nH]cc(CCNC(C)=O)c2c1 [melatonin]
changes in the dark-adapted ERG (MT2-/- mice): did not produce any changes
inositol phosphate production, result in words (MT1 [4]): inactive; also recorded: only at supra-physiological melatonin amount
PKC activity (MT1/MT2 heteromers [5]; HEK293T cells expressing MT1/MT2 heteromers, increasing concentrations): dose-dependently increased
PKC activity with coexpressed MT2-P95L (MT1/MT2 heteromers [5]; MT1/MT2 heteromers plus dominant negative MT2-P95L mutant, 100 nM melatonin): potently inhibited
amplitudes of a- and b-waves of the scotopic ERG (C3H-f+/+ mice [6]): increases the amplitudes
inositol phosphate production, result in words [7]: completely abolished
EC50 (MT2): 51 nM
inositol phosphate production, result in words (MT2; HEK293T cells expressing MT2 alone): unable to modulate this pathway
photoreceptor response (a-wave at 7 ms) (mouse photoreceptors; exogenous melatonin, ZT 6): significantly increased
inhibition of cAMP production (MT1 and MT2 receptors): not impaired but rather improved
PKC activity (MT1 [8]): less potently

Ki (mouse MT1 receptor): 73 ± 23 nM
amplitude of the a- or b-wave (C3H-f+/+ mice [1]; intravitreal 50 nM (MT2-selective concentration), C3H-f+/+ mice): did not increase
amplitude of the a- and b-wave (C3H-f+/+ mice [1]; intravitreal 5 μM (activates MT1 and MT2), C3H-f+/+ mice): significantly increased
Ki (mouse MT2 receptor): 0.052 ± 0.015 nM
Molecule: CCCC(=O)NCCc1c2n(c3ccc(OC)cc13)Cc1ccccc1-2 [IIK7]

Molecule: B1
BRET50 (FRET or BRET): 0.71

Molecule: B2
BRET50 [9]: 1.52
BRET50 [10]: 3.48
BRET50 (FRET or BRET): 2.61

Molecule: B3
BRET50 [10]: 1.67
